This passage reports GI50 and TGI results from PubChem BioAssay (NCI).

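Exposure lasted 48 hours, with cells grown in 96-well plates and compounds tested at five concentrations. GI50 = concentration required for 50% inhibition of growth. The concentration for full growth arrest is given as TGI.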

Some test systems named below: P388 leukemia; P388/ADR leukemia; SN12K1 renal.
What all share (experiment): NCI tumour cell line growth inhibition, 48 h

Turning to `[C-]#[O+].[Cl][Sn]([Cl])[Cl].[Cl][Sn]([Cl])[Cl].[Pt].c1cnc2c(c1)ccc1cccnc12`, the GI50 in the test with P388 leukemia was 2.12 µM; in the test with P388/ADR leukemia, 1.78 µM; with SN12K1 renal it was 3.37 µM. In addition, the TGI in the test with P388 leukemia was found to be 5.68 µM; with P388/ADR leukemia it was 5.1 µM; with SN12K1 renal, 16.7 µM.
